In PMC2574930 (Cancer, 2008):

Columns and labels:
sst5 = conditions: read-out: sst5 receptor subtype specificity (IC50); human receptor; cited from earlier work
[1] = tested on: Ki67 transcript in KRJ-I cells; test: Real-time PCR Ki67 transcripts, KRJ-I; type: cell-based, human
[2] = tested on: ERK1/2 phosphorylation in NCI-H727 cells; test: ELISA; type: cell-based, human; conditions: NCI-H727, 30 mins
NCI-H727 cells = test: MTT proliferation assay, NCI-H727; type: cell-based, human; conditions: 72 hours incubation, drug applied every 24 hrs, 10^−10 to 10^−6
[3] = tested on: p21^WAF1/CIP1 transcript in NCI-H727 cells; test: Real-time PCR p21WAF1/CIP1 transcripts, NCI-H727; type: cell-based, human; conditions: NCI-H727, 24 hrs
sst4 = conditions: read-out: sst4 receptor subtype specificity (IC50); human receptor; cited from earlier work
sst1 = conditions: read-out: sst1 receptor subtype specificity (IC50); human receptor; cited from earlier work
[4] = tested on: ERK1/2 phosphorylation in KRJ-I cells; test: ELISA; type: cell-based, human
sst3 = conditions: read-out: sst3 receptor subtype specificity (IC50); human receptor; cited from earlier work
sst2 = conditions: read-out: sst2 receptor subtype specificity (IC50); human receptor; cited from earlier work
[5] = tested on: Ki67 transcript in NCI-H720 cells; test: Real-time PCR Ki67 transcripts, NCI-H720; type: cell-based, human
[6] = tested on: p21^WAF1/CIP1 transcript in NCI-H720 cells; test: Real-time PCR p21WAF1/CIP1 transcripts, NCI-H720; type: cell-based, human
[7] = tested on: p21^WAF1/CIP1 transcript in KRJ-I cells; test: Real-time PCR p21WAF1/CIP1 transcripts, KRJ-I; type: cell-based, human; conditions: IC50 concentration, 24 hrs, p<0.01 vs. control, Mean±SEM, n=4

Compound | IC50 (sst5) | Ki67 transcript down regulated, vs. control ([1]; IC50 concentration, 24 hrs, p<0.01 vs. control, Mean±SEM, n=4) | ERK phosphorylation [2] | Effect on NCI-H727 proliferation (NCI-H727 cells) | p21^WAF1/CIP1 transcripts [3] | IC50 (sst4) | IC50 (sst1) | Activation of ERK1/2 signaling, vs. control ([4]; IC50 concentration, 30 mins, p=0.05 vs. control, Mean±SEM, n=4) | IC50 (sst3) | IC50 (sst2) | Ki67 transcript levels decreased, vs. unstimulated cells ([5]; NCI-H720, IC50 concentration, 24 hr, p<0.01, Mean±SEM, n=4) | p21^WAF1/CIP1 transcript levels increased, vs. control ([6]; NCI-H720, IC50 concentration, 24 hr, p<0.01 vs. control, Mean±SEM, n=4) | p21^WAF1/CIP1 transcripts elevated, vs. control [7] | Inhibition of lanreotide Ki67 down regulation by PD98059 ([1]; p<0.05 vs. lanreotide alone) | Inhibition of lanreotide-activated ERK1/2 signaling by PD98059 ([4]; PD98059 pre-incubated 10 min prior to lanreotide) | Ki67 transcript decrease by lanreotide when inhibited by PD98059 ([5]; NCI-H720, lanreotide 24 hr with PD98059, p<0.05 vs. lanreotide alone) | Reversal of lanreotide-induced p21^WAF1/CIP1 increase by PD98059 ([6]; NCI-H720, p<0.05 vs. lanreotide alone)
CC(C)[C@@H]1NC(=O)[C@H](CCCCN)NC(=O)[C@@H](Cc2c[nH]c3ccccc23)NC(=O)[C@H](Cc2ccc(O)cc2)NC(=O)[C@@H](NC(=O)[C@H](N)Cc2ccc3ccccc3c2)CSSC[C@@H](C(=O)N[C@H](C(N)=O)[C@@H](C)O)NC1=O [Lanreotide] | 12.7 nM | 73±12% | no effect | No effect | not significantly up-regulated | > 1000 nM | > 1000 nM | 25±8% | 98 nM | 0.75 nM | 45±7% | 140±27% | 175±21% |  |  |  | 
COc1cccc(-c2cc(=O)c3ccccc3o2)c1N [PD98059] |  |  |  |  |  |  |  |  |  |  |  |  |  | inhibited | could be inhibited | 6±2% | reversible
Somatostatin-14 | 1.41 nM |  |  |  |  | 1.77 nM | 1.95 nM |  | 1.2 nM | 0.25 nM |  |  |  |  |  |  | 
Somatostatin-28 | 0.4 nM |  |  |  |  | 5.4 nM | 1.86 nM |  | 1.3 nM | 0.31 nM |  |  |  |  |  |  | 
